Experimental data reported in PMC3070621, “Generation of novel cationic antimicrobial peptides from natural non-antimicrobial sequences by acid-amide substitution” (Annals of Clinical Microbiology and Antimicrobials, 2011).
No end group written: not given here.

Legend:
[1] = test system: Bacillus subtilis IFO3134; format: cell-based; conditions: IFO3134, 2 h, pH 7.5
Description: (§1) Microbicidal assay was performed as previously described. A low ionic strength condition was used to detect bactericidal activity with higher sensitivity. Briefly, each microbial strain in the mid-exponential phase was suspended in 10 mM Tris/HCl, pH 7.5. The microbial suspension was mixed with peptides. After 2 h incubation, the suspension was diluted 1,000 times and inoculated on to plates of IFO702 medium (1% polypeptone, 0.2% yeast extract, 0.1% MgSO4 7H2O, 2% agar). The numbers of colonies were counted, and a plot of peptide concentration vs colony number was created.

[2] = test system: Escherichia coli JM109; format: cell-based; conditions: JM109, 2 h, pH 7.5
Description: as §1

[3] = test system: Micrococcus luteus IFO12708; format: cell-based; conditions: IFO12708, 2 h, pH 7.5
Description: as §1

[4] = test system: Pseudomonas aeruginosa IFO3899; format: cell-based; conditions: IFO3899, 2 h, pH 7.5
Description: as §1

[5] = test system: Saccharomyces cerevisiae MAFF113011; format: cell-based; conditions: MAFF113011, 2 h, pH 7.5
Description: as §1

[6] = test system: Salmonella typhimurium IFO13245; format: cell-based; conditions: murium IFO13245, 2 h, pH 7.5
Description: as §1

[7] = test system: Serratia marcescens IFO3736; format: cell-based; conditions: IFO3736, 2 h, pH 7.5
Description: as §1

[8] = test system: Staphylococcus aureus IFO12732; format: cell-based; conditions: IFO12732, 2 h, pH 7.5
Description: as §1

[9] = test system: Human erythrocytes; test: Hemolytic assay; format: cell-based; conditions: peptide 300 μg/mL, 10 mM Tris-HCl pH 7.5 with 308 mM sucrose, 0.5 h, A540, pure water = 100% lysis
Description: Hemolytic assay was performed as previously described. Human erythrocytes were used. Hemolysis was estimated as the leakage of haemoglobin. The erythrocytes were washed and resuspended in 10 mM Tris-HCl, pH 7.5, containing 308 mM sucrose. The erythrocyte suspension was diluted by 30%. The diluted suspension was mixed with the equal volume of peptide solution dissolved in the same buffer. After 0.5 h of incubation, the test suspension was centrifuged to remove the intact erythrocytes. The supernatant was diluted, and A540 was measured. The hemolysis caused by pure water was defined as 100% lysis.

[10] = Precipitation in the presence of PG/CL liposomes (CD sample conditions); format: physicochemical; conditions: peptide 100 μg/ml, PG/CL liposome 500 μg/ml, 10 mM Tris-HCl pH 7.5, 20°C
Description: CD spectra were recorded on a J-720 spectropolarimeter (JASCO, Tokyo, Japan) in the far-ultraviolet (UV) range from 190 to 260 nm using a 0.1 cm thermostatted cell at 25°C. Peptides were dissolved in 10 mM Tris-HCl (pH 7.5) containing tri-fluoroethanol (TFE) at 0-100%. For measurement under the presence of liposomes, peptides were dissolved at 100 μg/ml containing 500 μg/ml liposomes at 20°C.
Furthermore, membrane-disruptive activities against liposomes were also estimated. A liposome dye-leakage assay was used. […] In contrast, NP2P and NP3P damaged the PG/CL liposome membrane at ≥0.3 μg/ml (Figure 4). The concentration was equal or lower than MBCs against Gram-positive bacteria, which were measured under identical ionic conditions. […] Since CD spectra could not be measured, the conformation of NP3P in the presence of PG/CL membrane remains unclear.

[11] = Liposome disruption assay (calcein release), PG/CL liposomes; conditions: PG:CL = 3:1 (molar), 10 mM Tris-HCl pH 7.5 with 350 mM sucrose, room temperature, three independent trials
Description: (§2) Membrane-disrupting activity was estimated by liposome disruption assay. Bovine heart phosphatidylglycerol (PG), egg cardiolipin (CL), and egg phosphatidylcholine (PC) were purchased from Avanti Polar Lipids, Inc., Alabama, USA. A lipid film was prepared by rotary evaporation of lipid solution (1 mg lipid in 1 ml chloroform). The lipid film was hydrated with 1 ml of 10 mM Tris-HCl buffer (pH 7.5) containing 75 mM calcein. Lipid dispersions were sonicated and subjected to five freeze-thaw cycles. Non-trapped calcein was removed by gel filtration on a Sephacryl S-300 spin column (GE Healthcare Bio-Science Corp., Piscataway, NJ, USA) equilibrated with 10 mM Tris-HCl (pH 7.5) containing 175 mM NaCl and 1 mM EDTA. These calcein-entrapped liposomes were diluted at a ratio of 1:1000 in 10 mM Tris-HCl (pH 7.5) containing 350 mM sucrose. Calcein release after membrane disruption was evaluated by measuring fluorescence intensity at 515 nm with excitation at 492 nm on a RF-5300PC spectrofluorometer at room temperature.
Figure 4 Membrane-disruption against acidic-liposomes. Calcein release from vesicles consisting of PG:CL = 3:1 was measured. Each point was obtained from three independent trials using a single preparation of liposomes and peptides, and represents the mean ± standard error of the mean.

[12] = Liposome disruption assay (calcein release), PC liposomes
Description: as §2

[13] = cited from earlier work

## RRRSVGEEDAIPSHIEVNKFFLRKPAKEHI-OH [P3P]
[1]
  MBC: > 300 µg/mL
[2]
  MBC: > 300 µg/mL
[3]
  MBC: 200 µg/mL
[4]
  MBC: 70 µg/mL
[5]
  MBC: > 300 µg/mL
[6]
  MBC: > 300 µg/mL
[7]
  MBC: >300 (>300) μg/ml
[8]
  MBC: > 300 µg/mL
[9]
  Hemolytic activity (%): 1.69 ± 0.05%
[10]
  precipitation in the presence of PG/CL liposome: not affected

## RRRFVAEQDAIHSRVSREVPTLSDSV-OH [P1P]
[1]
  MBC: > 300 µg/mL
[2]
  MBC: > 300 µg/mL
[3]
  MBC: > 300 µg/mL
[4]
  MBC: > 300 µg/mL
[5]
  MBC: > 300 µg/mL
[6]
  MBC: > 300 µg/mL
[7]
  MBC: >300 (>300) μg/ml
[8]
  MBC: > 300 µg/mL
[9]
  Hemolytic activity (%): 0.00 ± 0.00%

## RRRSVGQQNAIPSHIQVNKFFLRKPAKQHI-OH [NP3P]
[1]
  MBC: 20 µg/mL
[2]
  MBC: 7 µg/mL
[3]
  MBC: 10 µg/mL
[4]
  MBC: 20 µg/mL
[5]
  MBC: 7 µg/mL
[6]
  MBC: 20 µg/mL
[7]
  MBC: >300 (>300) μg/ml
[8]
  MBC: 5 µg/mL
[9]
  Hemolytic activity (%): 2.61 ± 0.02%
[11]
  concentration causing dye-leakage (membrane damage) of PG/CL liposomes: ≥ 0.3 µg/mL
[12]; PC liposomes, data not shown
  effect on PC liposome membrane (in words): did not affect PC liposome membrane
[10]
  precipitation in the presence of PG/CL liposome: precipitated

## RRRFVAQQNAIHSRVSRQVPTLSNSV-OH [NP1P]
[1]
  MBC: 30 µg/mL
[2]
  MBC: 10 µg/mL
[3]
  MBC: 30 µg/mL
[4]
  MBC: 20 µg/mL
[5]
  MBC: 200 µg/mL
[6]
  MBC: 30 µg/mL
[7]
  MBC: >300 (>300) μg/ml
[8]
  MBC: 10 µg/mL
[9]
  Hemolytic activity (%): 1.32 ± 0.02%
[11]
  concentration causing dye-leakage (membrane damage) of PG/CL liposomes: > 200 µg/mL
[12]; PC only liposomes, 10 mM Tris-HCl pH 7.5 with 350 mM sucrose, room temperature
  concentration causing dye-leakage (membrane disruption) of PC liposomes: > 200 µg/mL

## HRRSVAHQQQASLHVKTNQLPSPNTVRQQL-OH [NP4P]
[1]
  MBC: >300 (>300) μg/ml
[2]
  MBC: >300 (>300) μg/ml
[3]
  MBC: >300 (>300) μg/ml
[4]
  MBC: >300 (>300) μg/ml
[5]
  MBC: >300 (>300) μg/ml
[6]
  MBC: >300 (>300) μg/ml
[7]
  MBC: >300 (>300) μg/ml
[8]
  MBC: >300 (>300) μg/ml
[13]
  enhancer activity for membrane-disruptive antimicrobial peptides: enhancer activity for membrane-disruptive antimicrobial peptides was detected

## HRRSVAHQEEASLHVKTDELPSPDTVREQL-OH [P4P]
[1]
  MBC: >300 (>300) μg/ml
[2]
  MBC: >300 (>300) μg/ml
[3]
  MBC: >300 (>300) μg/ml
[4]
  MBC: >300 (>300) μg/ml
[5]
  MBC: >300 (>300) μg/ml
[6]
  MBC: >300 (>300) μg/ml
[7]
  MBC: >300 (>300) μg/ml
[8]
  MBC: >300 (>300) μg/ml
